# Test results reported in patent US20110208162A1, “METHODS FOR PREVENTING AGGREGATION OF ADIPOSE STROMAL CELLS” (Indiana University Rsearch and Technology Corporation, priority 2008, published 2011).
# “Also recorded” adds a separate entry of the source.
# Legend:
# ASC = ASC proliferation in presence of heparin; type: cell-based
# freshly isolated ASC = test: Observation of aggregation of freshly isolated ASC after resuspension in delivery medium; type: cell-based, pig; settings: pre-treating SVF with heparin before infusion
# Method: Isolation of the adipose stromal-vascular fraction (SVF). Fat was isolated using equipment and reagents from TGI-100 kits (Tissue Genesis, Inc, Honolulu, Hi., USA) following the manufacturer's instructions, with modifications as necessary in order to process the subcutaneous pig fat. Briefly, the fat was finely minced in a sterile container before washing 3 times with the supplied buffer solution. The fat was transferred into 50 ml conical screw cap centrifuge tubes before adding 10 ml of filtered ADIPASE™ solution. The tissue was dissociated by incubation in an Enviro-Genie incubator shaker for 2.5 hours, instead of the manufacturer's recommended digestion time for human fat of 45 minutes. The stromal-vascular pellet was recovered by centrifugation, filtered serially through 100 μm then 40 μm diameter pore size polypropylene filters (FALCON®). Viable cell counts were obtained using a hemacytometer and staining was performed with Trypan blue. Only cells larger than approximately 8 μm in diameter were counted. The cells were resuspended in a 20 ml cell the supplied suspension medium immediately before delivery. In the ASC-H group, the suspension medium contained 50 U heparin/ml. The cells were continuously mixed gently by hand until loaded into the syringe for delivery.
# Preparative yield of ASC. […]
# ASCs = test: Aggregation of fresh SVF or cultured ASCs in suspension buffer; type: cell-based, porcine or human; settings: for concentration dependence of inhibition of ASC aggregation: EDTA detached ASCs, 2 hours vigorous shaking
# Method: SVF was isolated from either excised dorsal hump (porcine) or lipoaspirated subcutaneous (human) adipose tissues using reagents and protocols supplied by Tissue Genesis Inc. (TGI). Cells were used either fresh or after enrichment for stromal cells, containing adipose-derived stem cells (ADSC), by attachment to and growth on uncoated tissue culture plastic. Low passage (P1-P4) cultured ASCs were detached from plastic by 2 mM EDTA treatment. 2−3×10^6 fresh SVF or cultured ASCs were incubated for increasing times in 1 ml of TGI suspension buffer, containing human serum proteins, under varying conditions as indicated in Figure legends. Cell suspensions were vigorously rocked during incubation. At the times indicated the suspensions were observed macroscopically, noting aggregate size and number, as well as microscopically, to quantitate aggregates (defined as a tightly associated grouping of 4 or more cells) as well as individual cells.
compound,measurement,setting,value
heparin,ASC proliferation,"ASC; highest concentration, 400 μg/ml",totally inhibited
same,ASC proliferation,"ASC; lowest concentration used, 50 μg/ml",inhibitory
same,aggregation and subsequent microinfarctions,freshly isolated ASC,substantially diminished
same,aggregation at the highest concentration used,ASCs; 400 μg/ml,still persisted
same,concentration dependence of inhibition of ASC aggregation,ASCs,dose dependent
same,concentration dependence of inhibition of ASC aggregation,ASCs; listed as Heparin,concentration dependent
same,most effective concentration used for inhibition of ASC aggregation,ASCs; equals 100 U/ml,400 µg/mL
same,aggregation of cells,ASCs; heparin 400 μg/ml final conc. in buffer,inhibits
same,formation of aggregates of all sizes,"ASCs; small 4-10 cells, large >10 cells, Image J counts",blocked
trypsin,cell aggregation after trypsin pretreatment,"ASCs; cultured ASCs, trypsin for 2 minutes",inhibited; also recorded: blocked
"O=C(O)CN(CCN(CC(=O)O)CC(=O)O)CC(=O)O [EDTA, ethylenediaminetetra-acetic acid]",effect of EDTA on aggregation with co-addition of Ca^2+,ASCs; EDTA then 7 mM Ca^2+,reversed
same,cell aggregation with EDTA in the buffer,"ASCs; cultured ASCs, EDTA during incubation",inhibited; also recorded: blocked
